Measured values published in US20110003017A1, “Method for Preparation of Extract from Angelica Gigas Nakai and Composition Containing the Extract” (AZI Co., Ltd., priority 2007, published 2011).

Experiment: antioxidant effects (electron donating ability) using DPPH
Assay type: biochemical
Details: DPPH radical scavenging, absorbance at 520 nm
Experimental: The antioxidant effects were determined using 1,1-diphenyl-2-picryl hydrazyl (DPPH). Analysis of the extract using DPPH is performed by the following method.
DPPH having radicals is mostly used for determining radical scavenging performance. DPPH was purchased from Sigma. The following procedures were carried out:
1) 2 ml of 0.1 mM […] (Sigma, D-9132) in ethanol was added to 2 ml of a sample dissolved in ethanol;
2) After mixing the solution for 10 minutes, the mixture was left in a dark place;
3) Absorbance of the resultant product at 520 nm was measured;
4) Calculation of antioxidant efficacy (electron donating ability),
EDA (electron donating ability)=(Cabs−Sabs)/Cabs*100
wherein • Cabs: absorbance of a negative control (which contains ethanol only instead of a sample), • Sabs: absorbance of a sample, and • Positive control: Vitamin E (Fluka, 95240) as a sample.
Antioxidant effects were compared between both extract powders obtained in Examples 1 and 2. Using DPPH analyzed and quantified EDA to determine the antioxidant effects of the extract powder. IC50 means a concentration required for scavenging 50% of radicals and it is determined that the antioxidant effects are enhanced as IC50 value is lowered.

In the case of Vitamin E, the “IC50 (concentration required for scavenging 50% of radicals)” value is reported as 15 µg/mL.
